Assays:
Cholinesterase [1] = target: T1, Cholinesterase (Equus caballus, UniProt P81908); test: Inhibition of equine serum BCHE using butyrylthiocholine iodide as substrate preincubated for 20 mins followed by substrate addition measured for 5 mins by spectrophotometry based Ellman method
Acetylcholinesterase = Acetylcholinesterase (Electrophorus electricus, UniProt O42275); test: Inhibition of electric eel AChE using acetylthiocholine iodide as substrate preincubated for 20 mins followed by substrate addition measured for 5 mins by spectrophotometry based Ellman method
Cholinesterase [2] = target: T1, Cholinesterase; test: Mixed/noncompetitive inhibition of equine serum BCHE using butyrylthiocholine iodide as substrate preincubated for 20 mins followed by substrate addition measured for 5 mins by Lineweaver-Burk plot analysis; conditions: read-out: Ki(app)
[3] = Selectivity ratio of IC50 for electric eel AChE to IC50 for equine serum BCHE

Acetylcholinesterase, sequence (O42275 whole entry): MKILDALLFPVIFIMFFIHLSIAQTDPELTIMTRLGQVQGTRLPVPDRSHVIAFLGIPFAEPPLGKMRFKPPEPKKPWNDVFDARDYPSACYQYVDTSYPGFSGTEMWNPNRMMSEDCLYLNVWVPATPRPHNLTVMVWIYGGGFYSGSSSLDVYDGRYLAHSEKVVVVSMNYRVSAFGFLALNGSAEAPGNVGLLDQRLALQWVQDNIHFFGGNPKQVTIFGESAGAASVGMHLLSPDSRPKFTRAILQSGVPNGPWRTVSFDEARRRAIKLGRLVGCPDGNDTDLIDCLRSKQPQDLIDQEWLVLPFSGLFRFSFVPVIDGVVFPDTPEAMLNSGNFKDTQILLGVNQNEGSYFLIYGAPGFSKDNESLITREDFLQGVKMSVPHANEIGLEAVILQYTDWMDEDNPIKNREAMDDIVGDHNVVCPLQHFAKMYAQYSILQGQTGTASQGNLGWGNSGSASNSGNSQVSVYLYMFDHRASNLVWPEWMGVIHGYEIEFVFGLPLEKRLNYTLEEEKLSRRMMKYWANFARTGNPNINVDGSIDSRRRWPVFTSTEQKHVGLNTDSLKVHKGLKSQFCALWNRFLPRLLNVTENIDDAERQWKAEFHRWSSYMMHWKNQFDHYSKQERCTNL
T1 sequence (P81908 whole entry): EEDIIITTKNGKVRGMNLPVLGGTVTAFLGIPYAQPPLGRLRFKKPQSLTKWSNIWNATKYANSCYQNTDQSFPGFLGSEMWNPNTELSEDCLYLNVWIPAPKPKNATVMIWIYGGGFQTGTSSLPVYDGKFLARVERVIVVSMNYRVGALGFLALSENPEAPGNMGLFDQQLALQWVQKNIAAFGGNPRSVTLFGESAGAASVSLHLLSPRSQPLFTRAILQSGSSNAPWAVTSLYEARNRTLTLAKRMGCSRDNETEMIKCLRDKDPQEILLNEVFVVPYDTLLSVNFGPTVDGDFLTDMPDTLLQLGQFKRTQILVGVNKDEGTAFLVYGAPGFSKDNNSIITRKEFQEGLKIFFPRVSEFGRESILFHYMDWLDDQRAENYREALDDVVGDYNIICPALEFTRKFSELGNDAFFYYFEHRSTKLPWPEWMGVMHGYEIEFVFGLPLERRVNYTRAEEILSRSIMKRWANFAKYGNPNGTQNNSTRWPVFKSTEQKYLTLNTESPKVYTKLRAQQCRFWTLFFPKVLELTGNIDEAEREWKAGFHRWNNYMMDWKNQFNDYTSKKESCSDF

| SMILES | IC50 (Cholinesterase [1]) | IC50 (Acetylcholinesterase) | Ki (Cholinesterase [2]) | Ratio IC50 [3] |
| --- | --- | --- | --- | --- |
| O=C(CC1c2ccccc2N=C(N2CCN(CCN3CCCC3)CC2)N1c1ccc(C2CCCCC2)cc1)NCc1ccc(F)cc1 (configuration not stated) | 2130 nM | 8000 nM |  |  |
| CN(C)CCCCCN(C)C1=Nc2c(F)cc(F)cc2C(CC(=O)NCc2ccccc2)N1c1ccc(-c2ccccc2)cc1 (configuration not stated) | 380 nM | 1200 nM |  |  |
| CN(C)CCN1CCN(C2=Nc3ccccc3C(CC(=O)NCc3ccc(F)cc3)N2c2ccc(-c3ccccc3)cc2)CC1 (configuration not stated) | 2600 nM | ≥ 10000 nM |  |  |
| O=C(CC1c2cccc(F)c2N=C(N2CCN(CCN3CCCC3)CC2)N1c1ccc(C2CCCCC2)cc1)NCc1ccc(F)cc1 (configuration not stated) | 2040 nM | > 10000 nM |  |  |
| CN(CCCCCN1CCCC1)C1=Nc2ccccc2C(CC(=O)NCc2ccccc2)N1c1ccc(-c2ccccc2)cc1 (configuration not stated) | 45 nM | 6600 nM | 29 nM | 146 |
| COC(=O)CC1c2ccccc2N=C(N2CCN(C)CC2)N1C1CCCCC1 (configuration not stated) | > 10000 nM | ≥ 10000 nM |  |  |
| CN(C)CCCCCN(C)C1=Nc2ccccc2C(CC(=O)NCc2ccc(F)cc2)N1c1ccc(-c2ccc(F)cc2)cc1 (configuration not stated) | 240 nM | 6500 nM |  |  |
| O=C(CC1c2ccccc2N=C(N2CCN(CCN3CCCC3)CC2)N1c1ccc(-c2ccccc2)cc1)NCc1ccc(F)cc1 (configuration not stated) | 1470 nM | > 10000 nM |  |  |
| COC(=O)CC1c2ccccc2N=C(N(C)CCCCCN)N1c1ccc(-c2ccccc2)cc1 (configuration not stated) | 140 nM | ≥ 10000 nM |  |  |
| CN(C)CCCCCN(C)C1=Nc2ccccc2C(CC(=O)NCc2ccccc2)N1c1ccc(-c2ccccc2)cc1 (configuration not stated) | 62 nM | ≥ 10000 nM | 51 nM | 161 |
| CN(CCCCCN)C1=Nc2ccccc2C(CC(=O)NCc2ccccc2)N1c1ccc(-c2ccccc2)cc1 (configuration not stated) | 5300 nM | 4100 nM |  |  |
| CN1CCN(C2=Nc3ccccc3C(CC(=O)NCc3ccccc3)N2c2ccccc2)CC1 (configuration not stated) | > 10000 nM | > 10000 nM |  |  |
| CN(C)CCCCCN(C)C1=Nc2ccccc2C(CC(=O)NCc2ccc(F)cc2)N1c1ccc(C2CCCCC2)cc1 (configuration not stated) | 400 nM | 4400 nM |  |  |
| COc1ccc(CNC(=O)CC2c3ccccc3N=C(N3CCN(CCN(C)C)CC3)N2c2ccc(-c3ccccc3)cc2)cc1 (configuration not stated) | 6100 nM | > 10000 nM |  |  |

— ChEMBL document CHEMBL3994657, “3,4-Dihydroquinazoline derivatives inhibit the activities of cholinesterase enzymes” (Bioorg Med Chem Lett, 2017)
